Legend:
Experiment in all cases: relative viability (nuclei count vs DMSO), 5 days (fraction); higher = more cells survive
JZL-184 = compound: C1CN(CCC1C(C2=CC3=C(C=C2)OCO3)(C4=CC5=C(C=C4)OCO5)O)C(=O)OC6=CC=C(C=C6)[N+](=O)[O-] [JZL-184]
Outline: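 A plate was accepted only when its control CV was below 25% and the cells had doubled at least once. Viability is defined from nuclear counts as treated wells divided by vehicle wells, with the median taken across plates. That median covers lung cancer cell lines grown in 1536-well plates, dosed by pinning at five √10-spaced library-drug concentrations, and counted in MetaXpress from 4× Hoechst images after 5 days.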

JZL-184 + Bortezomib = compound: C1CN(CCC1C(C2=CC3=C(C=C2)OCO3)(C4=CC5=C(C=C4)OCO5)O)C(=O)OC6=CC=C(C=C6)[N+](=O)[O-] [JZL-184] + CC(C)C[C@H](NC(=O)[C@H](Cc1ccccc1)NC(=O)c1cnccn1)B(O)O [Bortezomib] (partner 0.002 µM)
Outline: (§1)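 One day after seeding in 1536-well plates, lung cancer cell lines were dosed by pin tool. Dosing was either single-drug or a fixed anchor-drug dose plus five library-drug doses (not always all listed) in √10 steps. After 5 days, nuclei were stained in one fix-and-stain step and counted on 4× images, and relative viability is the nuclei count of treated wells over that of vehicle wells, given as the median of duplicate plates.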

JZL-184 + Pictilisib = compound: C1CN(CCC1C(C2=CC3=C(C=C2)OCO3)(C4=CC5=C(C=C4)OCO5)O)C(=O)OC6=CC=C(C=C6)[N+](=O)[O-] [JZL-184] + CS(=O)(=O)N1CCN(Cc2cc3nc(-c4cccc5[nH]ncc45)nc(N4CCOCC4)c3s2)CC1 [Pictilisib] (partner 1 µM)
Outline: as §1

JZL-184 + Navitoclax = compound: C1CN(CCC1C(C2=CC3=C(C=C2)OCO3)(C4=CC5=C(C=C4)OCO5)O)C(=O)OC6=CC=C(C=C6)[N+](=O)[O-] [JZL-184] + CC1(C)CCC(c2ccc(Cl)cc2)=C(CN2CCN(c3ccc(C(=O)NS(=O)(=O)c4ccc(N[C@H](CCN5CCOCC5)CSc5ccccc5)c(S(=O)(=O)C(F)(F)F)c4)cc3)CC2)C1 [Navitoclax] (partner 0.5 µM)
Outline: as §1

JZL-184 + Foretinib = compound: C1CN(CCC1C(C2=CC3=C(C=C2)OCO3)(C4=CC5=C(C=C4)OCO5)O)C(=O)OC6=CC=C(C=C6)[N+](=O)[O-] [JZL-184] + COc1cc2c(Oc3ccc(NC(=O)C4(C(=O)Nc5ccc(F)cc5)CC4)cc3F)ccnc2cc1OCCCN1CCOCC1 [Foretinib] (partner 0.25 µM)
Outline: as §1

JZL-184 + Olaparib = compound: C1CN(CCC1C(C2=CC3=C(C=C2)OCO3)(C4=CC5=C(C=C4)OCO5)O)C(=O)OC6=CC=C(C=C6)[N+](=O)[O-] [JZL-184] + O=C(c1cc(Cc2n[nH]c(=O)c3ccccc23)ccc1F)N1CCN(C(=O)C2CC2)CC1 [Olaparib] (partner 8 µM)
Outline: as §1

JZL-184 + Lapatinib = compound: C1CN(CCC1C(C2=CC3=C(C=C2)OCO3)(C4=CC5=C(C=C4)OCO5)O)C(=O)OC6=CC=C(C=C6)[N+](=O)[O-] [JZL-184] + CS(=O)(=O)CCNCc1ccc(-c2ccc3ncnc(Nc4ccc(OCc5cccc(F)c5)c(Cl)c4)c3c2)o1 [Lapatinib] (partner 2 µM)
Outline: as §1

JZL-184 + Crizotinib = compound: C1CN(CCC1C(C2=CC3=C(C=C2)OCO3)(C4=CC5=C(C=C4)OCO5)O)C(=O)OC6=CC=C(C=C6)[N+](=O)[O-] [JZL-184] + C[C@@H](Oc1cc(-c2cnn(C3CCNCC3)c2)cnc1N)c1c(Cl)ccc(F)c1Cl [Crizotinib] (partner 1 µM)
Outline: as §1

JZL-184 + Linsitinib = compound: C1CN(CCC1C(C2=CC3=C(C=C2)OCO3)(C4=CC5=C(C=C4)OCO5)O)C(=O)OC6=CC=C(C=C6)[N+](=O)[O-] [JZL-184] + C[C@]1(O)C[C@@H](c2nc(-c3ccc4ccc(-c5ccccc5)nc4c3)c3c(N)nccn32)C1 [Linsitinib] (partner 1 µM)
Outline: as §1

JZL-184 + Alpelisib = compound: C1CN(CCC1C(C2=CC3=C(C=C2)OCO3)(C4=CC5=C(C=C4)OCO5)O)C(=O)OC6=CC=C(C=C6)[N+](=O)[O-] [JZL-184] + Cc1nc(NC(=O)N2CCC[C@H]2C(N)=O)sc1-c1ccnc(C(C)(C)C(F)(F)F)c1 [Alpelisib] (partner 2 µM)
Outline: as §1

## EBC-1
JZL-184; 0.04 µM
  relative viability: 1.06
JZL-184; 0.4 µM
  relative viability: 0.992
JZL-184; 1.265 µM
  relative viability: 0.995
JZL-184; 4 µM
  relative viability: 1.03
JZL-184 + Bortezomib; first compound 0.04 µM
  relative viability: 0.595
JZL-184 + Bortezomib; first compound 0.4 µM
  relative viability: 0.514
JZL-184 + Bortezomib; first compound 1.265 µM
  relative viability: 0.558
JZL-184 + Bortezomib; first compound 4 µM
  relative viability: 0.455
JZL-184 + Pictilisib; first compound 0.04 µM
  relative viability: 0.347
JZL-184 + Pictilisib; first compound 0.4 µM
  relative viability: 0.287
JZL-184 + Pictilisib; first compound 1.265 µM
  relative viability: 0.506
JZL-184 + Pictilisib; first compound 4 µM
  relative viability: 0.364
JZL-184 + Navitoclax; first compound 0.04 µM
  relative viability: 0.442
JZL-184 + Navitoclax; first compound 0.4 µM
  relative viability: 0.427
JZL-184 + Navitoclax; first compound 1.265 µM
  relative viability: 0.45
JZL-184 + Navitoclax; first compound 4 µM
  relative viability: 0.342
JZL-184 + Foretinib; first compound 0.04 µM
  relative viability: 0.101
JZL-184 + Foretinib; first compound 0.4 µM
  relative viability: 0.0992
JZL-184 + Foretinib; first compound 1.265 µM
  relative viability: 0.0837
JZL-184 + Foretinib; first compound 4 µM
  relative viability: 0.106
JZL-184 + Olaparib; first compound 0.04 µM
  relative viability: 0.655
JZL-184 + Olaparib; first compound 0.4 µM
  relative viability: 0.744
JZL-184 + Olaparib; first compound 1.265 µM
  relative viability: 0.671
JZL-184 + Olaparib; first compound 4 µM
  relative viability: 0.666
JZL-184 + Lapatinib; first compound 0.04 µM
  relative viability: 0.176
JZL-184 + Lapatinib; first compound 0.4 µM
  relative viability: 0.239
JZL-184 + Lapatinib; first compound 1.265 µM
  relative viability: 0.204
JZL-184 + Lapatinib; first compound 4 µM
  relative viability: 0.209
JZL-184 + Crizotinib; first compound 0.04 µM
  relative viability: 0.21
JZL-184 + Crizotinib; first compound 0.4 µM
  relative viability: 0.189
JZL-184 + Crizotinib; first compound 1.265 µM
  relative viability: 0.195
JZL-184 + Crizotinib; first compound 4 µM
  relative viability: 0.193
JZL-184 + Linsitinib; first compound 0.04 µM
  relative viability: 0.971
JZL-184 + Linsitinib; first compound 0.4 µM
  relative viability: 0.848
JZL-184 + Linsitinib; first compound 1.265 µM
  relative viability: 0.929
JZL-184 + Linsitinib; first compound 4 µM
  relative viability: 0.832
JZL-184 + Alpelisib; first compound 0.04 µM
  relative viability: 0.982
JZL-184 + Alpelisib; first compound 0.4 µM
  relative viability: 0.795
JZL-184 + Alpelisib; first compound 1.265 µM
  relative viability: 0.802
JZL-184 + Alpelisib; first compound 4 µM
  relative viability: 0.754
